Measurements taken from patent US9381169B2, “Pharmaceutical composition and use of the pharmaceutical composition for the treatment, prophylaxis or prevention of neoplastic diseases in humans and animals” (UNIVERSIDADE BANDEIRANTE DE SÃO PAULO—ACADEMIA PAULISTA …, priority 2009, dated 2016).
Where two headings read alike, the source gives them in different places.

How the values were obtained:
[1] = test system: polychromatic erythrocytes; conditions: Wistar rats; for Observed frequencies of polychromatic erythrocytes with micronuclei in 1000 polychromatic erythrocytes: single intraperitoneal dose, cyclophosphamide 190 μM/Kg, DM-1 8 hours before cyclophosphamide
Text: We used animals of the Wistar strain, males and females, with approximately 90 days old and weighing between 250 and 300 grams, maintained with water and food “ad libitum” and in accordance with the rules and procedures regarding the use of laboratory animals. The animals were divided into four groups:
Negative control group—6 animals treated with a single dose of 0.7% saline solution.
Group treated with cyclophosphamide (positive control)—6 animals treated with a single dose of cyclophosphamide chemotherapy.
In all tests was administered 1 mL of the compound of interest intraperitoneally. […] Cyclophosphamide was administered at a concentration of 190 μM/Kg. The compounds were administered separately. At the end of the experiment (24 and 48 hours), animals were euthanized by deep general anesthesia induced by a lethal dose of sodium tiopentabarbital (CRMV, 2008).
This study allowed us to analyze the action of mutagenic compounds under study. Mutagenic compounds when administered in experimental animals cause changes in chromatin that can be identified by the formation of a mass within the nucleus called the micronucleus. The emergence of this mass is quantified and analyzed for their proportion to the capacity of a given drug or not to be mutagenic.
For micronucleus study we used the technique reported by Ribeiro et al. (Environmental Mutagenesis. Ulbra Publisher. Canoas: 1st edition, 2003.) For the staining of slides was used the technique described by Rabello-Gay et al. Apud SILVA, J. C. of; SILVA, S. of C. Evaluation of possible genotoxic effects of Gergilim (Sesamum indicum L., 2003).
In the test, the effect of the chemical agent is observed in anucleate polychromatic erythrocytes (ECPs), which have relatively short life span, so that it contains any micronucleus that was generated as a result of recent chromosomal damage. For the staining of slides was used Giemsa stain diluted in phosphate buffer at pH 6.8, in the ratio 1:10, for a period of 15 minutes. After staining, the slides were washed in distilled water to remove excess dye. To read the slides used an optical microscope and perform counting and analysis of 1000 polychromatic erythrocytes per slide, considering the frequency of micronucleated polychromatic erythrocytes.
The analysis was performed with cells increases 40× and 100× for the visualization of general morphology of the smears negative control group (FIG. 22), the groups treated with the compound DM1 and their polychromatic erythrocytes (FIGS. 23, 24 and 25). 1000 cells were analyzed per animal for the groups treated with DM1, negative control and cyclophosphamide for a total of 40,000 cells. The photodocumentation polychromatic erythrocytes was obtained by digital AVsoft. The group treated with cyclophosphamide was the positive control of the technique (FIG. 27).
The results were subjected to statistical analysis, the ANOVA test of variance followed by Tukey-Kramer multiple comparisons (parametric data) and the significance level of 5%, i.e., the probability P<0.05).

B16F10 melanoma [2] = assay: Tumor growth (dorsal tumor area), B16F10 melanoma; type: in vivo; conditions: C57Bl/6J mice
Procedure: (§1) Groups of mice of the C57Bl/6J strain were injected subcutaneously dorsally with 5×10^4 B16F10 melanoma tumor cells under sterile conditions. The animals were observed every 72 hours and tumor growth monitored until the average diameter of […].
Control group—10 animals with B16F10 melanoma tumor, which after the 11th day of tumor implantation, received daily intraperitoneal doses of saline 0.9%;
(§2) Paclitaxel-treated group—10 animals with B16F10 melanoma tumor, which after the 11th day of tumor implantation, received intraperitoneal doses of paclitaxel chemotherapy in […] of treatment;
(§3) After 14 days, the animals received implantation of B16F10 melanoma cells and received no treatment until the end of the experiment.
(§4) Paclitaxel was administered at a concentration of 15 μM/Kg, via intraperitoneal slow infusion, the treatment regimens described in the literature on days 1, 5 and 10, after the 7th day of tumor implantation. The compounds were administered separately.

B16F10 melanoma [3] = assay: Survival rate, B16F10 melanoma; type: in vivo, mice
Procedure: as §1, §2, §3, §4

B16F10 melanoma [4] = assay: Internal metastases, B16F10 melanoma; type: in vivo, mice
Procedure: as §1, §2
(§5) Group pre-treated with the DM-1 compound prior to the implant of B16F10 melanoma cells—10 animals were treated with daily doses of the compound DM-1 for 14 days before implantation of tumor cells. After 14 days, the animals received implantation of B16F10 melanoma cells and received no treatment until the end of the experiment.
as §5, with “cells and post-treated with DM-1 compound—10” for “cells—10”, “continued to receive daily” for “received no”, “with” for “until”, “compound DM-1 for another 14 days.” for “end of the experiment.”
(§6) The compounds were administered separately.

[5] = Hematologic evaluation (erythrocytes, leukocytes, platelets), B16F10 melanoma; type: in vivo, mice; conditions: for platelet counts during treatment compared to the control group: B16F10 melanoma mice
Procedure: as §6
The blood of animals with B16F10 melanoma tumor was harvested in the 6th and 14th day during treatment with the compound DM-1 and prior to the inoculation of B16F10 cells. In the charts, collections for the day 6 were named 1A, while those relating to day 14 were named 2A. After implantation, tumor blood were collected in the second, sixth and tenth days of treatment (after treatment with DM-1) in all groups of animals, and these collections were named 1B and 2B and 3B, respectively.

B16F10 melanoma cells = assay: Cell cycle phases and apoptosis of dorsal tumor cells (propidium iodide, FACSCalibur); type: in vivo, mice
Procedure: The cells were then frozen and kept in liquid nitrogen. After incubation with propidium iodide, the analysis was performed on a FACSCalibur cytometer. The results were expressed as mean percentage of cells in different phases of the cell cycle, debris and necrosis, apoptosis (sub-G1), quiescent non-proliferating cells G0/G1, S phase—synthesis of genetic material and G2/M at the beginning of cell division.

tumor cell lines = conditions: PCT/BR2007/000175 and PI0602640-0; cited from earlier work
Ehrlich tumor [6] = assay: Macroscopic spleen volume, Ehrlich tumor; conditions: all experimental protocols with DM-1
Procedure: (§7) We used 50 mice of the Balb-c strain, females and males, with approximately 25 g, aged approximately 6 to 8 weeks, with diet and water ad libitum, that were divided into 5 groups:
The spleens of animals from all experimental groups were analyzed for the display of nodes and metastases.

[7] = cited from earlier work
Ehrlich tumor [8] = assay: Number of renal and splenic metastases, Ehrlich tumor; type: in vivo; conditions: Balb-c mice
Procedure: As an experimental model of mammary adenocarcinoma, we used the Ehrlich tumor in mice of the Balb-c strain, with approximately 2 months of age and weighing between 20 to 25 grams. The maintenance of the tumor in vivo was performed by intraperitoneal administration of 10^7 cells every seven days.
Paclitaxel and etoposide were administered at concentrations of 15 μM/Kg and 3.73 mM/kg, respectively, by intraperitoneal slow infusion in treatment regimens described in the literature on days 1, 5 and 10, after the 7th day of tumor implantation. The compounds were administered separately.

Ehrlich tumor [9] = conditions: Balb-c mice, intraperitoneal from day 7 after implant, DM-1 1.6 nM/kg daily, paclitaxel 15 μM/Kg, etoposide 3.73 mM/kg on days 1, 5, 10
Text: as §7
CONTROL GROUP—10 animals implanted with tumor, which after 7 days of application, received daily intraperitoneal doses of saline 0.9%;
Paclitaxel-treated group—10 animals implanted with tumor, which after 7 days of application, received intraperitoneal doses of paclitaxel chemotherapy in the 1st, 5th and 10th days of treatment;
Etoposide-treated group—10 animals implanted with tumor, which after 7 days of application, received intraperitoneal doses of etoposide chemotherapy in the 1st, 5th and 10th days of treatment; […]
Tumor growth in mice was measured by the dimensions on the longitudinal and transverse abdominal cavity, with the aid of a digital caliper. […] The mean area (A), mass (M) and tumor burden (C) were calculated using the following equations, respectively: A=nπ2; L2×T=M/2 (where L is the measured longitudinal and transverse extent of the T waist circumference).

[10] = group pre and post treated with DM-1

## O=P1(N(CCCl)CCCl)NCCCO1 (centres unmarked) [Cyclophosphamide, cyclophosphamide]
[1]; bone marrow smears
  cells with micronuclei found in the group: more than 200 cells
[1]; DM-1 140 μM/Kg, 24 Hours
  Observed frequencies of polychromatic erythrocytes with micronuclei in 1000 polychromatic erythrocytes: 36.5 ± 1.0
[1]; DM-1 140 μM/Kg, 48 Hours
  Observed frequencies of polychromatic erythrocytes with micronuclei in 1000 polychromatic erythrocytes: 35.5 ± 1.0
[1]; positive control group
  frequency of micronucleated polychromatic erythrocytes in 1000 cells: 36 /1000

## COc1cc(C=CC(=O)C=Cc2ccc(O)c(OC)c2)ccc1[O-].[Na+] [DM-1, sodium 4-[5-(4-hydroxy-3-methoxy-phenyl)-3-oxo-penta-1,4-dienil]-2-methoxy-phenolate]
B16F10 melanoma [2]; pre and post treated with DM-1 0.83 nM/kg daily, 14 days before and 14 days after B16F10 implant
  dorsal tumor area, average values: 7.3±1.3 cm^2
B16F10 melanoma [2]; pretreated with DM-1 0.83 nM/kg daily for 14 days before B16F10 implant, no later treatment
  dorsal tumor area, average values: 6.5±1.7 cm^2
B16F10 melanoma [3]; group pre- and post-treated with DM-1
  increase of survival rate: 30%
B16F10 melanoma [3]; group pre-treated with DM-1
  increase of survival rate: 50%
B16F10 melanoma [4]; [10]
  formation of lung and liver metastases: inhibition
B16F10 melanoma [4]; group pre-treated with DM-1
  formation of lung and liver metastases: inhibition
[5]
  platelet counts during treatment compared to the control group: significant reductions
[5]; mice treated with DM-1
  erythrocytes (anemia): does not induce anemia
B16F10 melanoma cells; [10]
  percentage of cells in sub-G1 (apoptotic) phase: increased significantly
B16F10 melanoma cells; group pre-treated with DM-1
  percentage of cells in sub-G1 (apoptotic) phase: increased significantly
B16F10 melanoma cells; protocols of treatment with DM-1
  proportion of quiescent cells in G0/G1 phase: reduce
[1]; DM-1 140 μM/Kg, 24 Hours
  Observed frequencies of polychromatic erythrocytes with micronuclei in 1000 polychromatic erythrocytes: 2.4 ± 0.5
[1]; DM-1 140 μM/Kg, 48 Hours
  Observed frequencies of polychromatic erythrocytes with micronuclei in 1000 polychromatic erythrocytes: 2.2 ± 0.5
[1]; DM-1 140 μM/Kg, alone or 8 hours before cyclophosphamide 190 μM/Kg
  micronuclei in bone marrow smears (in words): not found significant changes
Tumor cell lines
  antiproliferative activity: significant
Ehrlich tumor [6]
  immunosuppression in animals with Ehrlich ascites tumor: suppressed

## C[C@@H](CN1CC(=O)NC(=O)C1)N1CC(=O)NC(=O)C1 [Dexrazoxane]
[7]; as co-adjuvant: dexrazoxane with etoposide, amifostine with cisplatin or paclitaxel
  rates of cell damage: > 45%

## O=S(=O)(O)CCS [Mesna]
[7]; in combination with paclitaxel
  antimutagenic action: moderate

## COc1cc([C@@H]2c3cc4c(cc3[C@@H](O[C@@H]3O[C@@H]5CO[C@@H](C)O[C@H]5[C@H](O)[C@H]3O)[C@H]3COC(=O)[C@H]23)OCO4)cc(OC)c1O [etoposide]
Ehrlich tumor [8]
  decrease of metastases in kidney: 10%
  decrease of metastases in spleen: 30%
Ehrlich tumor [9]
  median values of tumor area: 8.6±1.0 cm^2

## CC(=O)O[C@H]1C(=O)[C@@]2(C)[C@H]([C@H](OC(=O)c3ccccc3)[C@]3(O)C[C@H](OC(=O)[C@H](O)[C@@H](NC(=O)c4ccccc4)c4ccccc4)C(C)=C1C3(C)C)[C@]1(OC(C)=O)CO[C@@H]1C[C@@H]2O [paclitaxel, reference compound]
Ehrlich tumor [8]
  decrease of metastases in kidney: 30%
  decrease of metastases in spleen: 50%
B16F10 melanoma [2]; B16F10, treated after tumor implantation, paclitaxel 15 μM/Kg i.p., DM-1 0.83 nM/kg daily
  tumor area: 9.4 cm^2
B16F10 melanoma [3]; treated after tumor implantation
  increase of survival rate: no significant changes
[5]
  platelet counts during treatment compared to the control group: increase
B16F10 melanoma cells; compared to control and DM-1 groups
  proportion of cells killed by necrosis: significant increase
Ehrlich tumor [9]
  median values of tumor area: 11.4±1 cm^2
